Laboratory results taken from ChEMBL document CHEMBL1133284, “3-Phenyl-5-methyl-2H,5H-furan-2-ones: tuning antifungal activity by varying substituents on the phenyl ring” (2000).
In brackets after ≈: the same amount, converted by molar mass.

Columns and labels:
Lichtheimia corymbifera [1] = experiment: In vitro minimum inhibitory concentration of compound was determined against Absidia corymbifera after 24 hr r; type: functional
Candida albicans [2] = experiment: In vitro minimum inhibitory concentration of compound was determined against Candida albicans after 48 hr; type: functional
Aspergillus fumigatus [3] = experiment: In vitro minimum inhibitory concentration of compound was determined against Aspergillus fumigatus after 24 hr r; type: functional
Candida tropicalis [4] = experiment: In vitro minimum inhibitory concentration of compound was determined against Candida tropicalis after 24 hr r; type: functional
Pichia kudriavzevii [5] = experiment: In vitro minimum inhibitory concentration of compound was determined against Candida krusei after 24 hr r; type: functional
Trichosporon beigelii [6] = experiment: In vitro minimum inhibitory concentration of compound was determined against Trichosporon beigelii after 48 hr; type: functional
Trichophyton benhamiae [7] = experiment: In vitro minimum inhibitory concentration of compound was determined against Trichophyton mentagrophytes after 120 hr; type: functional, Arthroderma benhamiae
Aspergillus fumigatus [8] = experiment: In vitro minimum inhibitory concentration of compound was determined against Aspergillus fumigatus after 48 hr; type: functional
Candida albicans [9] = experiment: In vitro minimum inhibitory concentration of compound was determined against Candida albicans after 24 hr r; type: functional
Nakaseomyces glabratus [10] = experiment: In vitro minimum inhibitory concentration of compound was determined against Candida glabrata after 24 hr r; type: functional
Trichophyton benhamiae [11] = experiment: In vitro minimum inhibitory concentration of compound was determined against Trichophyton mentagrophytes after 72 hr; type: functional, Arthroderma benhamiae
Pichia kudriavzevii [12] = experiment: In vitro minimum inhibitory concentration of compound was determined against Candida krusei after 48 hr; type: functional
Nakaseomyces glabratus [13] = experiment: In vitro minimum inhibitory concentration of compound was determined against Candida glabrata after 48 hr; type: functional
Candida tropicalis [14] = experiment: In vitro minimum inhibitory concentration of compound was determined against Candida tropicalis after 48 hr; type: functional
Trichosporon beigelii [15] = experiment: In vitro minimum inhibitory concentration of compound was determined against Trichosporon beigelii after 24 hr r; type: functional
Lichtheimia corymbifera [16] = experiment: In vitro minimum inhibitory concentration of compound was determined against Absidia corymbifera after 48 hr; type: functional

Compound | MIC (Lichtheimia corymbifera [1]) [µM] | MIC (Candida albicans [2]) [µM] | MIC (Aspergillus fumigatus [3]) [µM] | MIC (Candida tropicalis [4]) [µM] | MIC (Pichia kudriavzevii [5]) [µM] | MIC (Trichosporon beigelii [6]) [µM] | MIC (Trichophyton benhamiae [7]) [µM] | MIC (Aspergillus fumigatus [8]) [µM] | MIC (Candida albicans [9]) [µM] | MIC (Nakaseomyces glabratus [10]) [µM] | MIC (Trichophyton benhamiae [11]) [µM] | MIC (Pichia kudriavzevii [12]) [µM] | MIC (Nakaseomyces glabratus [13]) [µM] | MIC (Candida tropicalis [14]) [µM] | MIC (Trichosporon beigelii [15]) [µM] | MIC (Lichtheimia corymbifera [16]) [µM]
CC1C=C(c2cccc(Br)c2)C(=O)O1 (configuration not stated) | 62.5 (≈ 15.8 µg/mL) | 125 (≈ 31.6 µg/mL) | 62.5 (≈ 15.8 µg/mL) | 250 (≈ 63.3 µg/mL) | 250 (≈ 63.3 µg/mL) | 250 (≈ 63.3 µg/mL) | 125 (≈ 31.6 µg/mL) | 250 (≈ 63.3 µg/mL) | 31.2 (≈ 7.91 µg/mL) | 250 (≈ 63.3 µg/mL) | 62.5 (≈ 15.8 µg/mL) | 500 (≈ 127 µg/mL) | 500 (≈ 127 µg/mL) | 500 (≈ 127 µg/mL) | 62.5 (≈ 15.8 µg/mL) | 125 (≈ 31.6 µg/mL)
CC[C@@H]1C=C(c2ccc(C)cc2)C(=O)O1 | 250 (≈ 50.6 µg/mL) | 500 (≈ 101 µg/mL) | 250 (≈ 50.6 µg/mL) | 500 (≈ 101 µg/mL) | 500 (≈ 101 µg/mL) | 500 (≈ 101 µg/mL) | 250 (≈ 50.6 µg/mL) | 500 (≈ 101 µg/mL) | 250 (≈ 50.6 µg/mL) | 500 (≈ 101 µg/mL) | 125 (≈ 25.3 µg/mL) | > 500 | > 500 | > 500 | 250 (≈ 50.6 µg/mL) | 250 (≈ 50.6 µg/mL)
CC1C=C(c2cccc(F)c2)C(=O)O1 (configuration not stated) | 500 (≈ 96.1 µg/mL) | 250 (≈ 48 µg/mL) | 250 (≈ 48 µg/mL) | 500 (≈ 96.1 µg/mL) | 500 (≈ 96.1 µg/mL) | 500 (≈ 96.1 µg/mL) | 125 (≈ 24 µg/mL) | 500 (≈ 96.1 µg/mL) | 62.5 (≈ 12 µg/mL) | > 1000 | 125 (≈ 24 µg/mL) | 1000 (≈ 192 µg/mL) | > 1000 | 1000 (≈ 192 µg/mL) | 250 (≈ 48 µg/mL) | 500 (≈ 96.1 µg/mL)
CC1C=C(c2ccc(Cl)c(Cl)c2)C(=O)O1 (configuration not stated) | 7.81 (≈ 1.9 µg/mL) | 500 (≈ 122 µg/mL) | 7.81 (≈ 1.9 µg/mL) | > 500 | > 500 | > 500 | 62.5 (≈ 15.2 µg/mL) | 62.5 (≈ 15.2 µg/mL) | 31.2 (≈ 7.6 µg/mL) | > 500 | 31.2 (≈ 7.6 µg/mL) | > 500 | > 500 | > 500 | 31.2 (≈ 7.6 µg/mL) | 31.2 (≈ 7.6 µg/mL)
CC1C=C(c2ccccc2)C(=O)O1 (configuration not stated) | 1000 (≈ 174 µg/mL) | > 1000 | 1000 (≈ 174 µg/mL) | > 1000 | > 1000 | > 1000 | 1000 (≈ 174 µg/mL) | > 1000 | 1000 (≈ 174 µg/mL) | > 1000 | 500 (≈ 87.1 µg/mL) | > 1000 | > 1000 | > 1000 | > 1000 | > 1000
CC(=O)N1CCN(c2ccc(OC[C@H]3CO[C@](Cn4ccnc4)(c4ccc(Cl)cc4Cl)O3)cc2)CC1 [KETOCONAZOLE] | 31.2 (≈ 16.6 µg/mL) | 0.12 (≈ 0.0638 µg/mL) | 15.6 (≈ 8.31 µg/mL) | 15.6 (≈ 8.31 µg/mL) | 3.91 (≈ 2.08 µg/mL) | 0.12 (≈ 0.0638 µg/mL) | 1.95 (≈ 1.04 µg/mL) | 15.6 (≈ 8.31 µg/mL) | 0.12 (≈ 0.0638 µg/mL) | 0.24 (≈ 0.128 µg/mL) | 0.98 (≈ 0.521 µg/mL) | 3.91 (≈ 2.08 µg/mL) | 0.49 (≈ 0.26 µg/mL) | 15.6 (≈ 8.31 µg/mL) | 0.12 (≈ 0.0638 µg/mL) | 31.2 (≈ 16.6 µg/mL)

The next lines start with the values.

MIC (Lichtheimia corymbifera [1]) [µM] | MIC (Candida albicans [2]) [µM] | MIC (Aspergillus fumigatus [3]) [µM] | MIC (Candida tropicalis [4]) [µM] | MIC (Pichia kudriavzevii [5]) [µM] | MIC (Trichosporon beigelii [6]) [µM] | MIC (Trichophyton benhamiae [7]) [µM] | MIC (Aspergillus fumigatus [8]) [µM] | MIC (Candida albicans [9]) [µM] | MIC (Nakaseomyces glabratus [10]) [µM] | MIC (Trichophyton benhamiae [11]) [µM] | MIC (Pichia kudriavzevii [12]) [µM] | MIC (Nakaseomyces glabratus [13]) [µM] | MIC (Candida tropicalis [14]) [µM] | MIC (Trichosporon beigelii [15]) [µM] | MIC (Lichtheimia corymbifera [16]) [µM] | Compound
1000 (≈ 188 µg/mL) | > 1000 | 1000 (≈ 188 µg/mL) | > 1000 | > 1000 | > 1000 | 500 (≈ 94.1 µg/mL) | > 1000 | 1000 (≈ 188 µg/mL) | > 1000 | 250 (≈ 47.1 µg/mL) | > 1000 | > 1000 | > 1000 | > 1000 | > 1000 | Cc1ccc(C2=CC(C)OC2=O)cc1 (configuration not stated)
1000 (≈ 204 µg/mL) | 1000 (≈ 204 µg/mL) | 1000 (≈ 204 µg/mL) | 1000 (≈ 204 µg/mL) | > 1000 | > 1000 | 250 (≈ 51.1 µg/mL) | 1000 (≈ 204 µg/mL) | 1000 (≈ 204 µg/mL) | > 1000 | 125 (≈ 25.5 µg/mL) | > 1000 | > 1000 | > 1000 | 1000 (≈ 204 µg/mL) | > 1000 | COc1ccc(C2=CC(C)OC2=O)cc1 (configuration not stated)
250 (≈ 54.8 µg/mL) | 500 (≈ 110 µg/mL) | 250 (≈ 54.8 µg/mL) | 500 (≈ 110 µg/mL) | 500 (≈ 110 µg/mL) | 1000 (≈ 219 µg/mL) | 125 (≈ 27.4 µg/mL) | 1000 (≈ 219 µg/mL) | 250 (≈ 54.8 µg/mL) | 500 (≈ 110 µg/mL) | 62.5 (≈ 13.7 µg/mL) | 500 (≈ 110 µg/mL) | 1000 (≈ 219 µg/mL) | 500 (≈ 110 µg/mL) | 500 (≈ 110 µg/mL) | 250 (≈ 54.8 µg/mL) | CC1C=C(c2ccc([N+](=O)[O-])cc2)C(=O)O1 (configuration not stated)
125 (≈ 26.1 µg/mL) | 125 (≈ 26.1 µg/mL) | 62.5 (≈ 13 µg/mL) | 250 (≈ 52.2 µg/mL) | 250 (≈ 52.2 µg/mL) | 250 (≈ 52.2 µg/mL) | 62.5 (≈ 13 µg/mL) | 125 (≈ 26.1 µg/mL) | 31.2 (≈ 6.52 µg/mL) | 500 (≈ 104 µg/mL) | 31.2 (≈ 6.52 µg/mL) | 500 (≈ 104 µg/mL) | 1000 (≈ 209 µg/mL) | 500 (≈ 104 µg/mL) | 125 (≈ 26.1 µg/mL) | 250 (≈ 52.2 µg/mL) | CC1C=C(c2ccc(Cl)cc2)C(=O)O1 (configuration not stated)
62.5 (≈ 12 µg/mL) | 250 (≈ 48 µg/mL) | 125 (≈ 24 µg/mL) | 250 (≈ 48 µg/mL) | 500 (≈ 96.1 µg/mL) | 250 (≈ 48 µg/mL) | 250 (≈ 48 µg/mL) | 125 (≈ 24 µg/mL) | 62.5 (≈ 12 µg/mL) | 500 (≈ 96.1 µg/mL) | 250 (≈ 48 µg/mL) | 500 (≈ 96.1 µg/mL) | 500 (≈ 96.1 µg/mL) | 500 (≈ 96.1 µg/mL) | 125 (≈ 24 µg/mL) | 62.5 (≈ 12 µg/mL) | CC1C=C(c2ccc(F)cc2)C(=O)O1 (configuration not stated)
125 (≈ 31.6 µg/mL) | 62.5 (≈ 15.8 µg/mL) | 62.5 (≈ 15.8 µg/mL) | 250 (≈ 63.3 µg/mL) | 250 (≈ 63.3 µg/mL) | 250 (≈ 63.3 µg/mL) | 62.5 (≈ 15.8 µg/mL) | 250 (≈ 63.3 µg/mL) | 7.81 (≈ 1.98 µg/mL) | 500 (≈ 127 µg/mL) | 31.2 (≈ 7.91 µg/mL) | 250 (≈ 63.3 µg/mL) | 1000 (≈ 253 µg/mL) | 500 (≈ 127 µg/mL) | 125 (≈ 31.6 µg/mL) | 125 (≈ 31.6 µg/mL) | CC1C=C(c2ccc(Br)cc2)C(=O)O1 (configuration not stated)
